# Data from US12594276B2, “Inhibitors of human immunodeficiency virus replication” (ViiV Healthcare UK (No.5) Limited, priority 2024, dated 2026).
# Columns and labels:
# [1] = tested on: recombinant NL4-3 virus (nef section replaced with Renilla luciferase gene) in MT-2 cells; experiment: HIV cell culture assay (antiviral activity, luciferase readout); type: cell-based; details: Renilla, NL43, MT-2 cells infected for 4-5 days with recombinant NL4-3 Renilla luciferase virus
# Method in brief: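 Reporter virus is produced in 293T cells and its titer set in MT-2 cells by luciferase activity. MT-2 cells are then infected in the presence of serially diluted compound for 4-5 days. Luciferase is quantified and EC50 fitted to the median effect equation.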
# [2] = Compound cytotoxicity, XTT-based colorimetric assay; type: cell-based; details: human; uninfected MT2 cells, day 4, XTT; read-out: CC50
# Method in brief: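 Uninfected MT2 cells, antiviral-assay protocol without virus; XTT colorimetric readout day 4; CC50 reported.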
Structure (SMILES),EC50 [1],CC50 at 4 days [2]
"Cc1cc(C2(F)CCC(F)(F)CC2)nc2nc([C@H](Cc3cc(F)cc(F)c3)NC(=O)Cn3nc(C(F)F)c4c3C(F)(F)[C@@H]3C[C@H]43)n(-c3ccc(Cl)c4c(NS(C)(=O)=O)nn(CCN5CCO[C@@H](C(C)C)C5)c34)c(=O)c12 (atropisomer, axis not shown; (P)) [Example 574, N-[(1S)-1-[(3P)-3-(4-chloro-3-methanesulfonamido-1-{2-[(2S)-2-(propan-2-yl)morpholin-4-yl]ethyl}-1H-indazol-7-yl)-5-methyl-4-oxo-7-(1,4,4-trifluorocyclohexyl)-3H,4H-pyrido[2,3-d]pyrimidin-2-yl]-2-(3,5-difluorophenyl)ethyl]-2-[(2S,4R)-9-(difluoromethyl)-5,5-difluoro-7,8-diazatricyclo[4.3.0.0^2,^4]nona-1(6),8-dien-7-yl]acetamide]",0.019 nM,> 20 nM
"CS(=O)(=O)Nc1nn(CCN2CCC3(CC2)COC3)c2c(-n3c([C@H](Cc4cc(F)cc(F)c4)NC(=O)Cn4nc(C(F)F)c5c4C(F)(F)[C@@H]4C[C@H]54)nc4nc(C5CCC(F)(F)CC5)ccc4c3=O)ccc(Cl)c12 (atropisomer, axis not shown; (P)) [Example 170, N-[(1S)-1-[(3P)-3-[4-chloro-3-methanesulfonamido-1-(2-{2-oxa-7-azaspiro[3.5]nonan-7-yl}ethyl)-1H-indazol-7-yl]-7-(4,4-difluorocyclohexyl)-4-oxo-3H,4H-pyrido[2,3-d]pyrimidin-2-yl]-2-(3,5-difluorophenyl)ethyl]-2-[(2S,4R)-9-(difluoromethyl)-5,5-difluoro-7,8-diazatricyclo[4.3.0.0^2,^4]nona-1(6),8-dien-7-yl]acetamide]",0.032 nM,> 50 nM
"COCCCn1nc(NS(C)(=O)=O)c2c(Cl)ccc(-n3c([C@H](Cc4cc(F)cc(F)c4)NC(=O)Cn4nc(C(F)F)c5c4C(F)(F)[C@@H]4C[C@H]54)nc4nc(C5CCC(F)(F)CC5)cc(NC[C@H]5CCOC5)c4c3=O)c21 (atropisomer, axis not shown; (P)) [Example 567, N-[(1S)-1-[(3P)-3-[4-chloro-3-methanesulfonamido-1-(3-methoxypropyl)-1H-indazol-7-yl]-7-(4,4-difluorocyclohexyl)-4-oxo-5-({[(3R)-oxolan-3-yl]methyl}amino)-3H,4H-pyrido[2,3-d]pyrimidin-2-yl]-2-(3,5-difluorophenyl)ethyl]-2-[(2S,4R)-9-(difluoromethyl)-5,5-difluoro-7,8-diazatricyclo[4.3.0.0^2,^4]nona-1(6),8-dien-7-yl]acetamide]",0.009 nM,> 20 nM
"Cc1cc(C2(F)CCC(F)(F)CC2)nc2nc([C@H](Cc3cc(F)cc(F)c3)NC(=O)Cn3nc(C(F)F)c4c3C(F)(F)[C@@H]3C[C@H]43)n(-c3ccc(Cl)c4c(NS(C)(=O)=O)nn(CCN5C[C@H]6CC[C@@H](C5)O6)c34)c(=O)c12 (atropisomer, axis not shown; (P)) [Example 589, N-[(1S)-1-[(3P)-3-(4-chloro-3-methanesulfonamido-1-{2-[(1R,5S)-8-oxa-3-azabicyclo[3.2.1]octan-3-yl]ethyl}-1H-indazol-7-yl)-5-methyl-4-oxo-7-(1,4,4-trifluorocyclohexyl)-3H, 4H-pyrido[2,3-d]pyrimidin-2-yl]-2-(3,5-difluorophenyl)ethyl]-2-[(2S,4R)-9-(difluoromethyl)-5,5-difluoro-7,8-diazatricyclo[4.3.0.0^2,^4]nona-1(6),8-dien-7-yl]acetamide]",0.005 nM,> 20 nM
"CS(=O)(=O)Nc1nn(CCN2CCC(F)(F)C2)c2c(-n3c([C@H](Cc4cc(F)cc(F)c4)NC(=O)Cn4nc(C(F)F)c5c4C(F)(F)[C@@H]4C[C@H]54)nc4nc(C5CCC(F)(F)CC5)ccc4c3=O)ccc(Cl)c12 (atropisomer, axis not shown; (P)) [Example 158, N-[(1S)-1-[(3P)-3-{4-chloro-1-[2-(3,3-difluoropyrrolidin-1-yl)ethyl]-3-methanesulfonamido-1H-indazol-7-yl}-7-(4,4-difluorocyclohexyl)-4-oxo-3H,4H-pyrido[2,3-d]pyrimidin-2-yl]-2-(3,5-difluorophenyl)ethyl]-2-[(2S,4R)-9-(difluoromethyl)-5,5-difluoro-7,8-diazatricyclo[4.3.0.0^2,^4]nona-1(6),8-dien-7-yl]acetamide]",0.011 nM,> 50 nM
"CS(=O)(=O)Nc1nn(CCN2CC[C@H](F)C2)c2c(-n3c([C@H](Cc4cc(F)cc(F)c4)NC(=O)Cn4nc(C(F)F)c5c4C(F)(F)[C@@H]4C[C@H]54)nc4nc(C5CCC(F)(F)CC5)ccc4c3=O)ccc(Cl)c12 (atropisomer, axis not shown; (P)) [Example 207, N-[(1S)-1-[(3P)-3-(4-chloro-1-{2-[(3S)-3-fluoropyrrolidin-1-yl]ethyl}-3-methanesulfonamido-1H-indazol-7-yl)-7-(4,4-difluorocyclohexyl)-4-oxo-3H,4H-pyrido[2,3-d]pyrimidin-2-yl]-2-(3,5-difluorophenyl)ethyl]-2-[(2S,4R)-9-(difluoromethyl)-5,5-difluoro-7,8-diazatricyclo[4.3.0.0^2,^4]nona-1(6),8-dien-7-yl]acetamide]",0.013 nM,> 50 nM
"C[C@@H]1CN(CCn2nc(NS(C)(=O)=O)c3c(Cl)ccc(-n4c([C@H](Cc5cc(F)cc(F)c5)NC(=O)Cn5nc(C6CC6)c6c5C[C@@H]5C[C@H]65)nc5nc(C6CCC(F)(F)CC6)cc(C6CC6)c5c4=O)c32)C[C@H](C)O1 (atropisomer, axis not shown; (P)) [Example 324, N-[(1S)-1-[(3P)-3-(4-chloro-1-{2-[(2R,6S)-2,6-dimethylmorpholin-4-yl]ethyl}-3-methanesulfonamido-1H-indazol-7-yl)-5-cyclopropyl-7-(4,4-difluorocyclohexyl)-4-oxo-3H,4H-pyrido[2,3-d]pyrimidin-2-yl]-2-(3,5-difluorophenyl)ethyl]-2-[(2S,4S)-9-cyclopropyl-7,8-diazatricyclo[4.3.0.0^2,^4]nona-1(6),8-dien-7-yl]acetamide]",0.014 nM,> 50 nM
"CS(=O)(=O)Nc1nn(CCN2CCC(F)CC2)c2c(-n3c([C@H](Cc4cc(F)cc(F)c4)NC(=O)Cn4nc(C(F)F)c5c4C(F)(F)[C@@H]4C[C@H]54)nc4nc(C5CCC(F)(F)CC5)cc(C(F)F)c4c3=O)ccc(Cl)c12 (atropisomer, axis not shown; (P)) [Example 370, N-[(1S)-1-[(3P)-3-{4-chloro-1-[2-(4-fluoropiperidin-1-yl)ethyl]-3-methanesulfonamido-1H-indazol-7-yl}-7-(4,4-difluorocyclohexyl)-5-(difluoromethyl)-4-oxo-3H,4H-pyrido[2,3-d]pyrimidin-2-yl]-2-(3,5-difluorophenyl)ethyl]-2-[(2S,4R)-9-(difluoromethyl)-5,5-difluoro-7,8-diazatricyclo[4.3.0.0^2,^4]nona-1(6),8-dien-7-yl]acetamide]",0.009 nM,> 20 nM
"COCCCn1nc(NS(C)(=O)=O)c2c(Cl)ccc(-n3c([C@H](Cc4cc(F)cc(F)c4)NC(=O)Cn4nc(C5CC5)c5c4C[C@@H]4C[C@H]54)nc4nc(C5CCC(F)(F)CC5)cc(C)c4c3=O)c21 (atropisomer, axis not shown; (P)) [Example 87, N-[(1S)-1-[(3P)-3-[4-chloro-3-methanesulfonamido-1-(3-methoxypropyl)-1H-indazol-7-yl]-7-(4,4-difluorocyclohexyl)-5-methyl-4-oxo-3H,4H-pyrido[2,3-d]pyrimidin-2-yl]-2-(3,5-difluorophenyl)ethyl]-2-[(2S,4S)-9-cyclopropyl-7,8-diazatricyclo[4.3.0.0^2,^4]nona-1(6),8-dien-7-yl]acetamide]",0.019 nM,> 50 nM
"COCCCn1nc(NS(C)(=O)=O)c2c(Cl)ccc(-n3c([C@H](Cc4cc(F)cc(F)c4)NC(=O)Cn4nc(C(F)F)c5c4C(F)(F)[C@@H]4C[C@H]54)nc4nc(C5CCC(F)(F)CC5)cc(CN5CCC(F)(F)CC5)c4c3=O)c21 (atropisomer, axis not shown; (P)) [Example 489, N-[(1S)-1-[(3P)-3-[4-chloro-3-methanesulfonamido-1-(3-methoxypropyl)-1H-indazol-7-yl]-7-(4,4-difluorocyclohexyl)-5-[(4,4-difluoropiperidin-1-yl)methyl]-4-oxo-3H,4H-pyrido[2,3-d]pyrimidin-2-yl]-2-(3,5-difluorophenyl)ethyl]-2-[(2S,4R)-9-(difluoromethyl)-5,5-difluoro-7,8-diazatricyclo[4.3.0.0^2,4]nona-1(6),8-dien-7-yl]acetamide]",0.018 nM,> 20 nM
"Cc1cc(C2CCC(F)(F)CC2)nc2nc([C@H](Cc3cc(F)cc(F)c3)NC(=O)Cn3nc(C(F)F)c4c3C(F)(F)[C@@H]3C[C@H]43)n(-c3ccc(Cl)c4c(NS(C)(=O)=O)nn(CC(=O)N5C[C@H]6C[C@H]6C5)c34)c(=O)c12 (atropisomer, axis not shown; (P)) [Example 409, N-[(1S)-1-[(3P)-3-(1-{2-[(1R,5S)-3-azabicyclo[3.1.0]hexan-3-yl]-2-oxoethyl}-4-chloro-3-methanesulfonamido-1H-indazol-7-yl)-7-(4,4-difluorocyclohexyl)-5-methyl-4-oxo-3H,4H-pyrido[2,3-d]pyrimidin-2-yl]-2-(3,5-difluorophenyl)ethyl]-2-[(2S,4R)-9-(difluoromethyl)-5,5-difluoro-7,8-diazatricyclo[4.3.0.0^2,^4]nona-1(6),8-dien-7-yl]acetamide]",0.014 nM,> 20 nM
